Legend:
[1] = system: STHdh^Q7/7 cells expressing Htt96Q-mCherry or Htt20Q-mCherry
Protocol: (§1) Transfections of HEK 293 cells were carried out according to the calcium phosphate method. STHdh^Q7/7 cells are a murine striatal cell line with a stable knock-in of the full-length wild type (WT) human Htt containing a polyglutamine stretch of 7 glutamines (Trettel et al. 2000). […] No cell line used is listed as a commonly misidentified cell line. Cell lines were not authenticated. To reduce any risk of cross-contamination they were grown for a limited number of passages. Transient transfections of NIH 3T3 and STHdh^Q7/7 cells were performed using an MP-100 Microporator (Digital Bio) or ViaFect™ Transfection Reagent (Cat.No. E4981) (Promega), according to the manufacturer's protocols.
(§2) Briefly, cells grown for 24 h after transfection on coverslips in 24-well plates were fixed with 3% paraformaldehyde, followed by blocking with 50 mM glycine in PBS and normal goat IgG in PBS/2% BSA. The cells were incubated with primary antibodies for 1 h, washed and incubated for 30 min with secondary antibodies, followed by washes. Nuclei were stained with 4′,6-diamidino-2-phenylindole (Cat.No. F6057) (Sigma). Confocal microscopy was done on a Zeiss laser scanning confocal microscope (LSM 510; Carl Zeiss, Jena, Germany) as described previously. ImageJ was used to quantify fluorescence intensity in images of treated individual cells compared to untreated cells with and without Htt96Q-mCherry aggregates and to calculate Mander's coefficients for colocalization studies.

[2] = system: isolated YAC128 striatal mitochondria; conditions: wild-type mice, 30 mg/kg/day oral gavage 45 days
Protocol: In isolated mitochondria, H2O2 levels were measured using the Amplex Red-horseradish peroxidase method. […] The homogenate was then dispensed into a 96-multiwell plate and fluorescence was measured in a spectrofluorometer microplate reader by excitation at 570 nm and emission at 585 nm every 30 s, for 20 min. After 10 min of basal reading, mitochondria were challenged with antimycin A (2 μM). Results were analyzed as time-dependent changes in fluorescence.
(§3) 1.5-month-old WT and hemizygous YAC128 mice (males and females in equal proportion) were divided into four groups. […] Mice were divided 4 animals per cage enriched in corn-husk nesting material and paper rolls, each cage representing one individual experiment, for a total of 9 animals per group. Pridopidine was dissolved in deionized sterile water. Animals were weighed every week and the volume of treatment adjusted accordingly. Mice were behaviorally tested in rotarod immediately before commencing treatment and on the day before finishing treatment. Tests were conducted blindly at a set time during the day. Mice were sacrificed 24 h after administration of the final pridopidine dose, and mitochondria isolated from the striatum.
The final homogenate was then centrifuged at 1,100×g for 2 min, at 4° C. […] Protein content of isolated mitochondria was quantified by Bio-Rad assay (Bio-Rad, catalog no. 5000006).

[3] = system: S1R/BiP colocalization in NIH 3T3 cells
Protocol: Colocalization of S1R and mitochondria was assessed in NIH 3T3 cells expressing WT myc-Htt20Q or mutant myc-Htt96Q. Cells were then fixed, permeabilized and reacted with mouse anti-myc and rabbit anti-S1R. Images were pseudo-colored to better visualize the colocalization of S1R and MitoTracker.
as §1, §2

[4] = system: HD-iPSC-derived neural stem cells (HD-NSCs)
Protocol: Neural induction occurred between day 0 and days 12-15. From day 0 to day 5, cells were maintained in iPSC medium without FGF2 and incubated with 5 μM dorsomorphin and 10 μM SB431542. Medium was changed every other day. […] Between days 12 and 15, fields full of rosettes became morphologically visible. To allow the cells to differentiate, cells were replated in Geltrex® coated 12-well plates. For detaching, 500 μl of 1×Accutase® (Thermo Fisher Sci., catalog no: A1110501) was added to the plate and incubated at 37° C. in 5% CO2, for 15-20 min. Accutase was diluted in DMEM/F12 medium pre-warmed to 37° C. Cells were collected and spun for 3 min at 200×g at room temperature, and resuspended in 200 μl of media into 12-well plates. […] Cells were incubated overnight at 37° C., 5% CO2. Cells were passaged every 2-3 days for no more than 10-12 passages.
Oxygen consumption rate (OCR) in WT and hemizygous YAC128 cortical/striatal co-cultures and NSCs was measured using Seahorse XFe-24/96 flux analyzers (Seahorse Bioscience, Billerica, MA, USA) following the manufacturer's instructions. […] Pridopidine (0.1, 1 and/or 5 μM) was added, when indicated in the graphs, 24 h before the experiment. The sensor cartridge plate was incubated with immersed sensors in a non-CO2 incubator at 37° C. for ~16 h (overnight). […] The cell medium was aspirated gently to avoid disturbing cell monolayers. […] Accordingly, mitochondrial basal respiration, maximal respiration and ATP production was automatically calculated and recorded by the Seahorse software. Data was normalized for protein levels.

[5] = system: mitochondrial complexes II, III and IV; conditions: 30 mg/kg/day oral gavage 45 days
Protocol: as §3
The final homogenate was then centrifuged at 1,100×g for 2 min, at 4° C. […] The mitochondrial fraction was pelleted by centrifugation at 18,500×g for 10 min at 4° C. The pellet was then resuspended in 1 mL of mitochondria washing buffer (MWB: in mM, 250 sucrose, 5 HEPES-KOH, 0.1 EGTA, pH 7.2) and centrifuged at 10,000×g for 5 min at 4° C. Mitochondrial pellet was again resuspended in a small volume of ice-cold MWB, to create a concentrated mitochondria solution, and kept on ice for further analysis for a maximum of 2 hours. Protein content of isolated mitochondria was quantified by Bio-Rad assay (Bio-Rad, catalog no. 5000006).
After centrifugation, the volume was adjusted to 450 μL and the Seahorse plate was equilibrated in a humidified C02-free incubator at 37° C. for 10-12 min.

[6] = system: CHOP, GADD34, ATF6, XBP1s in cells expressing myc-Htt96Q or myc-Htt20Q
Protocol: Total cell RNA was extracted with TRIzol reagent (Invitrogen) according to the manufacturer's instructions. […] Real-time PCR was carried out using a CFX Connect Real-Time PCR Detection System (BioRad) and the amplifications were done using the SYBR Green PCR Master Mix (Cat.No. pb089617-100-1) (Pcrbio). Reactions were run in triplicates in three independent experiments. Housekeeping gene GAPDH was used as an internal control to normalize the variability of expression levels.
Cells were lysed in PBS containing 1% Triton X-100, 0.5% sodium deoxycholate with protease inhibitors and centrifuged to pellet insoluble aggregates, debris and nuclei. Phosphatase inhibitor cocktail 2 and 3 and 10 mM […] phosphate were added to the lysis buffer to inhibit phosphatases for detection of phosphorylated proteins. Supernatants were separated from pellets and incubated in loading buffer for 5 min at 100° C., pellets were incubated for 10 min at 100° C. After SDS-PAGE and transfer to nitrocellulose membrane, blocking was done in 5% low-fat milk and 0.1% Tween-20 in PBS for 1 h. Incubation with the primary antibody was overnight at 4° C. and after three washes in 0.1% Tween-20 in PBS, incubation with the appropriate secondary antibody was for 1 h at room temperature. After washing, enhanced chemiluminescence assay was performed and the membrane was exposed and quantified in a Bio-Rad ChemiDocXRS Imaging System (Bio-Rad, Hercules, CA).

[7] = system: HD lymphoblasts; conditions: 5 μM, H2O2-challenged conditions, p=0.0001
Protocol: H2O2 (9.8 M stock) was dissolved in cell culture medium prior to experimentation. Primary neurons and lymphoblasts cultured on PDL-coated plates were treated with H2O2 (0-1 mM) for up to 6 hours. Oxidative stress was measured using the CellROX red reagent (Life Technologies, catalog no. C10422). Cells were treated with 5 μM CellRox red in complete medium, then incubated for 30 minutes. The cells were then washed with PBS and imaged on a Zeiss Axiovert inverted microscope (Zeiss, Jena, Germany) using a 10× objective. Exposure settings were maintained for all samples. Eight random fields were sampled, and the fluorescence intensity was measured using ImageJ software and normalized to the DAPI signal.

[8] = system: Y128 neurons; conditions: 5 μM given 24 h before 0.1 mM H2O2 for 6 h, p=0.001
Protocol: Mitochondrial membrane potential (Δψm) was assessed in cortical and striatal neurons using the positively changed fluorescent probe TMRM (tetramethylrhodamine methyl ester) (Thermo Fisher Sci., catalog no: T668) and in cortical/striatal co-cultures and lymphoblasts using an equivalent probe, TMRE (tetramethylrhodamine ethyl ester) (Abcam, catalog no. ab113852).
TMRE assay: Primary neurons and lymphoblasts in suspension were cultured in 6-well plates.

[9] = cells expressing mutant Htt96Q, 48 h

CCCN1CCC(c2cccc(S(C)(=O)=O)c2)CC1 [Pridopidine, 4-[3-(methylsulfonyl)phenyl]-1-propyl-piperidine]
H2a-GFP accumulation, of the untreated control ([1]; cells positive for mHtt (Htt96Q-mCherry) aggregates): 40%
ER stress (H2a-GFP relative intensity), dose dependence ([1]; cells with Htt96Q-mCherry aggregates, from 0.03 to 150 μM): significantly reduces ER stress in a dose-dependent manner
H2a-GFP levels ([1]; cells without aggregates or cells expressing Htt20Q-mCherry): does not alter H2a-GFP levels
percent of cells that show visible Htt96Q-mCherry aggregates ([1]; expression of Htt96Q-mCherry for 24 h): unchanged
mitochondrial H2O2 levels [2]: does not affect
S1R/BiP colocalization ([3]; cells expressing Htt20Q): does not affect S1R/BiP colocalization
S1R/BiP colocalization (BiP-RFP) ([3]; cells expressing Htt96Q aggregates, 150 μM): restores S1R/BiP colocalization in cells expressing Htt96Q aggregates to normal, unstressed levels
colocalization of S1R and BiP-GFP ([3]; cells expressing myc-Htt96Q, 150 μM): shows a trend towards increasing colocalization
ATP production [4]: shows a trend towards increasing ATP production
maximal respiration [4]: also increases
mitochondrial basal respiration [4]: also increases mitochondrial basal
activity of mitochondrial complex IV (OCR) ([5]; YAC128 mice): shows a similar decreasing trend
activity of mitochondrial complex III ([5]; YAC128 mice, p=0.0084): normalizes the activity of mitochondrial complexes H and III
activity of mitochondrial complex II ([5]; YAC128 mice, p=0.0306): normalizes the activity of mitochondrial complexes H and III
mitochondrial complex activities ([5]; wild-type mice): does not affect mitochondrial complex activities
reduction in ATF6 fragment ([6]; Htt96Q-expressing cells, 3 μM): 35%
reduction in XBP-1s mRNA (IRE1 pathway) ([6]; Htt96Q-expressing cells, 3 μM): 25%
CHOP and GADD34 levels ([6]; cells expressing Htt20Q): does not affect these factors
reduction of CHOP levels [6, 9]: 2.5 fold
reduction of GADD34 levels [6, 9]: 7 fold
decrease of ROS levels (CellRox) [7]: 57%
H2O2-induced loss of MMP (TMRE) [8]: completely reverts this H2O2-induced loss of MMP
